pKi: −log10 of the molar value.

For 28 compounds, Ki results are on record in patent US6936607B2, “2,4,6-Triaminopyrimidines for the treatment of depression and/or anxiety” (H. Lunobeck A/S, priority 2002, dated 2005).

For the assay, the target named is T1, human GalR3 receptor (Homo sapiens, UniProt O60755).
T1 construct: expressed in transfected cells; host or cells: mouse fibroblast LM(tk-) cells, stably transfected; membranes
T1 sequence (O60755 1-368): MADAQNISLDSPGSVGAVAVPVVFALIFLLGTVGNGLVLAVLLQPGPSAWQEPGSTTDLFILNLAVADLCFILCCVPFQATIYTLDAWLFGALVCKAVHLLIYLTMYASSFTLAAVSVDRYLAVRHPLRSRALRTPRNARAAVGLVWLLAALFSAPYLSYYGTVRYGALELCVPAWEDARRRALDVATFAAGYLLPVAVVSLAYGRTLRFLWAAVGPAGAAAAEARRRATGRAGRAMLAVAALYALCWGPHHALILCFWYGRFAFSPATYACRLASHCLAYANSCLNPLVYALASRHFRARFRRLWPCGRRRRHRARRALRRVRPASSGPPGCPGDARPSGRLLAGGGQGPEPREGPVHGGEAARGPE
Nature of the assay: Radioligand binding assay at cloned human GalR3 receptor. The conditions noted are these: Binding Data; membranes from LM(tk-) cells stably transfected with the human GalR3 receptor. The procedure: LM(tk-) cells were stably transfected with the human GalR3 receptor. cDNAs for the human and rat GalR3 receptors were transfected with a G-418 resistant gene into the mouse fibroblast LM(tk-) cell line by a calcium phosphate transfection method (Cullen, 1987). Membranes were harvested from stably transfected LM(tk-) cells. Adherent cells were washed twice in ice-cold phosphate buffered saline (138 mM NaCl, 8.1 mM Na2HPO4, 2.5 mM KCl, 1.2 mM KH2PO4, 0.9 mM CaCl2, 0.5 mM MgCl2, pH 7.4) and lysed by sonication in ice-cold sonication buffer (20 mM Tris-HCl, 5 mM EDTA, pH 7.7). Large particles and debris were cleared by low speed centrifugation (200×g, 5 min, 4° C.). Membranes were collected from the supernatant fraction by centrifugation (32,000×g, 18 min, 4° C.), washed with ice-cold hypotonic buffer, and collected again by centrifugation (32,000×g, 18 min, 4° C.). The final membrane pellet was resuspended by sonication into a small volume of ice-cold binding buffer (˜1 ml for every 5 plates: 10 mM NaCl, 20 mM HEPES, 0.22 mM KH2PO4, 1.26 mM CaCl2, 0.81 mM MgSO4, pH 7.4). Protein concentration was measured by the Bradford method (Bradford, 1976) using Bio-Rad Reagent, with bovine serum albumin as a standard. Membranes were held on ice for up to one hour and used fresh, or flash frozen and stored in liquid nitrogen. Membranes were prepared similarly from CHO cells. The methods to obtain the cDNA of the receptors, express said receptors in heterologous systems, and carry out assays to determine binding affinity are described as follows. Binding assays were performed according to the following published method: human GALR3 (PCT International Publication No. WO 02/060392).

Take `CN(C)c1cc(Nc2cccc(OCc3ccccc3)c2)nc(N2CCCCC2)n1` [Example 36, N^4-[3-(BENZYLOXY)PHENYL]-N^6,N^6-DIMETHYL-2-(1-PIPERIDINYL)-4,6-PYRIMIDINEDIAMINE]: the negative-log Ki (pKi) (usually the Ki on a negative log10 scale, so that one unit is a factor of ten) is 7.64. The compound `CN(C)c1cc(Nc2cccc(OCc3ccccc3)c2)nc(N2CCN(c3ccc(Cl)cc3)CC2)n1` [Example 31, N^4-[3-(BENZYLOXY)PHENYL]-2-[4-(4-CHLOROPHENYL)-1-PIPERAZINYL]-N^6,N^6-DIMETHYL-4,6-PYRIMIDINEDIAMINE] gave a pKi of 7.59. Consider `Cc1ccc(Nc2cc(N(C)C)nc(N3CCN(c4ccccn4)CC3)n2)c(NC(C)C)c1` [Example 45, N^4-[2-(ISOPROPYLAMINO)-4-METHYLPHENYL]-N^6,N^6-DIMETHYL-2-[4-(2-PYRIDINYL)-1-PIPERAZINYL]-4,6-PYRIMIDINEDIAMINE], for which the pKi is 6.30.

The compound `CN(C)c1cc(Nc2cccc(OCc3ccccc3)c2)nc(N(C)CC2CCCO2)n1` (stereo not shown) [Example 35, N^4-[3-(BENZYLOXY)PHENYL]-N^2,N^6,N^6-TRIMETHYL-N^2-(TETRAHYDRO-2-FURANYLMETHYL)-2,4,6-PYRIMIDINETRIAMINE] had a pKi of 7.38. Regarding `C[C@H]1CN(c2nc(Nc3cccc(OCc4ccccc4)c3)cc(N(C)C)n2)C[C@H](C)O1` (racemic) [Example 48, (±)-N^4-[3-(BENZYLOXY)PHENYL]-2-(TRANS-2,6-DIMETHYL MORPHOLINYL)-N^6,N^6-DIMETHYL-4,6-PYRIMIDINEDIAMINE], the negative-log Ki (pKi) was 7.52. In turn, `CN(C)c1cc(Nc2cccc(OCc3ccccc3)c2)nc(N2CCN(c3cccc(Cl)c3)CC2)n1` [Example 27, N^4-[3-(BENZYLOXY)PHENYL]-2-[4-(3-CHLOROPHENYL)-1-PIPERAZINYL]-N^6,N^6-DIMETHYL-4,6-PYRIMIDINEDIAMINE] had a negative logarithm of the Ki (pKi) of 7.55. To `COc1cccc(Nc2cc(N(C)C)nc(N3CCN(c4ccc(Cl)cc4)CC3)n2)c1` [Example 15, 2-[4-(4-CHLOROPHENYL)-1-PIPERAZINYL]-N^4-(3-METHOXYPHENYL)-N^6,N^6-DIMETHYL-4,6-PYRIMIDINEDIAMINE] belongs 7.06; to `Cc1ccc(Nc2cc(N(C)C)nc(N3C[C@@H](C)O[C@@H](C)C3)n2)cc1N(C)Cc1ccccc1` [Example 49, N^4-{3-[BENZYL(METHYL)AMINO]-4-METHYLPHENYL}-2-[CIS-2,6-DIMETHYIMORPHOLINYL]-N^6,N^6-DIMETHYL-4,6-PYRIMIDINEDIAMINE], 6.99; to `Cc1ccc(Nc2cc(N(C)C)nc(N3CCN(c4ccccn4)CC3)n2)cc1NC(C)C` [Example 26, N^4-[3-(ISOPROPYLAMINO)-4-METHYLPHENYL]-N^6,N^6-DIMETHYL-2-[4-(2-PYRIDINYL)-1-PIPERAZINYL]-4,6-PYRIMIDINEDIAMINE], 6.61.

In turn, `C[C@@H]1CN(c2nc(Nc3cccc(OCc4ccccc4)c3)cc(N(C)C)n2)C[C@H](C)O1` [Example 34, N^4-[3-(BENZYLOXY)PHENYL]-2-[CIS-2,6-DIMETHYLMORPHOLINYL]-N^6,N^6-DIMETHYL-4,6-PYRIMIDINEDIAMINE] gave a pKi of 7.49.

The compound `Cc1ccc(Nc2cc(N(C)C)nc(N3CCN(c4ccc(Cl)cc4)CC3)n2)cc1` [Example 7, 2-[4-(4-CHLOROPHENYL)-1-PIPERAZINYL]-N^4,N^4-DIMETHYL-N^6-(4-METHYLPHENYL)-4,6-PYRIMIDINEDIAMINE] had a pKi of 6.45. This pKi lies 1.04 log units lower than the previous one.

`CN(C)c1cc(Nc2cccc(OCc3ccccc3)c2)nc(N2CCN(c3ccccc3F)CC2)n1` [Example 24, N^4-[3-(BENZYLOXY)PHENYL]-2-[4-(2-FLUOROPHENYL)-1-PIPERAZINYL]-N^6,N^6-DIMETHYL-4,6-PYRIMIDINEDIAMINE]: the pKi is 7.70. Then `C[C@@H]1CN(c2nc(Nc3ccc(Cl)c(Cl)c3)cc(N(C)C)n2)C[C@H](C)O1` [Example 51, N^4-(3,4-DICHLOROPHENYL)-2-(CIS-2,6-DIMETHYLMORPHOLINYL)-N^6,N^6-DIMETHYL-4,6-PYRIMIDINEDIAMINE], with 7.09.

`CN(C)c1cc(Nc2ccc(Cl)c(Cl)c2)nc(N2CCN(c3ccc(Cl)cc3)CC2)n1` [Example 54, 2-[4-(4-CHLOROPHENYL)-1-PIPERAZINYL]-N-(3,4-DICHLOROPHENYL)-N^6,N^6-DIMETHYL-4,6-PYRIMIDINEDIAMINE] had a negative logarithm of the Ki (pKi) of 6.82. Compared with the last compound, the pKi is 0.27 log units lower.

`Cc1ccc(Nc2cc(N(C)C)nc(N3CCN(c4ccccc4F)CC3)n2)cc1` [Example 5, 2-[4-(2-FLUOROPHENYL)-1-PIPERAZINYL]-N^4,N^4-DIMETHYL-N^6-(4-METHYLPHENYL)-4,6-PYRIMIDINEDIAMINE] had a pKi of 6.93.

For the compound `Cc1ccc(Nc2cc(N(C)C)nc(N3CCN(c4ccccc4F)CC3)n2)cc1C` [Example 19, N^4-(3,4-DIMETHYLPHENYL)-2-[4-(2-FLUOROPHENYL)-1-PIPERAZINYL]-N^6,N^6-DIMETHYL-4,6-PYRIMIDINEDIAMINE], the pKi was 6.93. To `CN(C)c1cc(Nc2ccc3c(c2)CCC3)nc(N2CCN(c3ccccc3F)CC2)n1` [Example 12, N^4-(2,3-DIHYDRO-1H-INDEN-5-YL)-2-[4-(2-FLUOROPHENYL)-1-PIPERAZINYL]-N^6,N^6-DIMETHYL-4,6-PYRIMIDINEDIAMINE] belongs 7.12; to `CN(C)c1cc(Nc2ccc(C3CCCCC3)cc2)nc(N2CCN(c3cccc(Cl)c3)CC2)n1` [Example 9, 2-[4-(3-CHLOROPHENYL)-1-PIPERAZINYL]-N^4-(4-CYCLOHEXYLPHENYL)-N^6,N^6-DIMETHYL-4,6-PYRIMIDINEDIAMINE], 6.62. For `CN(C)c1cc(Nc2ccc(C3CCCCC3)cc2)nc(N2CCN(c3ccccc3F)CC2)n1` [Example 18, N^4-(4-CYCLOHEXYLPHENYL)-2-[4-(2-FLUOROPHENYL)-1-PIPERAZINYL]-N^6,N^6-DIMETHYL-4,6-PYRIMIDINEDIAMINE], the pKi is 7.34. Regarding `Cc1ccc(Nc2cc(N(C)C)nc(N3CCN(c4c(C(F)(F)F)ccc[n+]4[O-])CC3)n2)cc1` [Example 46, N^4,N^4-DIMETHYL-N^6-(4-METHYLPHENYL)-2-{4-[l-OXIDO-3-(TRIFLUOROMETHYL)-2-PYRIDINYL]-1-PIPERAZINYL}-4,6-PYRIMIDINEDIAMINE], the negative logarithm of the Ki (pKi) is 6.58.

On to `CN(C)c1cc(Nc2ccc(SC(F)(F)F)c(Cl)c2)nc(N2CCN(c3ccc(Cl)cc3)CC2)n1` [Example 30, 2-[4-(4-CHLOROPHENYL)-1-PIPERAZINYL]-N^4-{3-CHLORO-4-[TRIFLUOROMETHYL) SULFANYL]PHENYL}-N^6,N^6-DIMETHYL-4,6-PYRIMIDINEDIAMINE], for which the pKi is 6.86. Compound `CCC(C)Nc1cc(Nc2cc(N(C)C)nc(N3C[C@@H](C)O[C@@H](C)C3)n2)ccc1C` (stereo partly drawn) [Example 50, N^4-[3-(SEC-BUTYLAMINO)-4-METHYLPHENYL]-2-[CIS-2,6-DIMETHYL MORPHOLINYL]-N^6,N^6-DIMETHYL-4,6-PYRIMIDINEDIAMINE] showed a pKi of 6.51. To `Cc1ccc(Nc2cc(N(C)C)nc(N3CCN(c4ccccc4Cl)CC3)n2)cc1` [Example 3, 2-[4-(2-CHLOROPHENYL)-1-PIPERAZINYL]-N^4,N^4-DIMETHYL-N^6-(4-METHYLPHENYL)-4,6-PYRIMIDINEDIAMINE] belongs 7.54; to `CN(C)c1cc(Nc2ccc3c(c2)CCC3)nc(N2CCN(c3cccc(Cl)c3)CC2)n1` [Example 2, 2-[4-(3-CHLOROPHENYL)-1-PIPERAZINYL]-N^4-(2,3-DIHYDRO-1H-INDEN-5-YL)-N^6,N^6-DIMETHYL-4,6-PYRIMIDINEDIAMINE], 7.47; to `CN(C)c1cc(Nc2cccc(OCc3ccccc3)c2)nc(N2CCc3ccccc32)n1` [Example 42, N^4-[3-(BENZYLOXY)PHENYL]-2-(2,3-DIHYDRO-1H-INDOL-1-YL)-N^6,N^6-DIMETHYL-4,6-PYRIMIDINEDIAMINE], 7.04. Compound `CN(C)c1cc(Nc2cccc(OCc3ccccc3)c2)nc(N2CCCC2)n1` [Example 37, N^4-[3-(BENZYLOXY)PHENYL]-N^6,N^6-DIMETHYL-2-(1-PYRROLIDINYL)-4,6-PYRIMIDINEDIAMINE] gave a pKi of 7.23. This pKi and that of the compound before are within 0.2 log units of each other. `Cc1ccc(Nc2cc(N(C)C)nc(NCc3ccccc3)n2)cc1` [Example 39, N^2-BENZYL-N^4,N^4-DIMETHYL-N^6-(4-METHYLPHENYL)-2,4,6-PYRIMIDINE TRIAMINE] showed a pKi of 6.94. As to `CN(C)c1cc(Nc2ccc(SC(F)(F)F)c(Cl)c2)nc(N2CCN(c3ccccc3Cl)CC2)n1` [Example 22, 2-[4-(2-CHLOROPHENYL)-1-PIPERAZINYL]-N^4-{3-CHLORO-4-[(TRIFLUOROMETHYL) SULFANYL]PHENYL}-N^6,N^6-DIMETHYL-4,6-PYRIMIDINE DIAMINE], the negative-log Ki (pKi) is 6.74.
